# According to EP0127529A2, “Aminocyclic N-oxide derivatives, process for their preparation and their therapeutical use” (DELALANDE S.A., priority 1983, dated 1984):
# How the values were obtained:
# souris = test: Acute toxicity in mice, intraperitoneal route; type: in vivo; conditions: i.p.
# From the text: La toxicité aiguë des composés selon l'invention a également été étudiée chez la souris par voie intrapéritonéale. Le tableau II ci-après donne à titre d'exemple non limitatif les résultats obtenus avec certains des composés selon l'invention.
# [1] = system: redressements à l'apomorphine; test: Antagonism of apomorphine-induced rearing (climbing) in mice; type: in vivo; conditions: souris, i.p.
# From the text: Ces propriétés psychotropes ont été mises en évidence chez la souris, notamment par le test de l'antagonisme aux redressements à l'apomorphine réalisé d'après le protocole décrit par G. GOURET et Coll. dans J. Pharmacol. (Paris) (^1973), ^4, 341.
SMILES,Toxicité (souris) DL 50 (souris) [mg/kg/i.p.],Antagonisme aux redressements à l'apomorphine DE 50 [1]
"COc1cccc(C(=O)NC2CC3CCC(C2)[N+]3([O-])Cc2ccccc2)c1OC (stereo not shown) [compound 2, N-oxyde équatorial du (diméthoxy-2,3) benzoylamino-3 N-benzyl aza-8 bicyclo[3.2.1] octane]",400,"0,27 mg/kg/i.p."
"COc1cccc(C(=O)NC2CC3CCC(C2)[N+]3([O-])Cc2ccccc2)c1OC (stereo not shown) [compound 1, N-oxyde axial du (diméthoxy-2,3) benzoylamino-3 N-benzyl aza-8 bicyclo [3.2,1] octane]",> 400,"2,2 mg/kg/i.p."
